In publication PMC7730182, “Synthesis and in Silico Modelling of the Potential Dual Mechanistic Activity of Small Cationic Peptides Potentiating the Antibiotic Novobiocin against Susceptible and Multi-Drug Resistant Escherichia coli” (International Journal of Molecular Sciences, 2020):

Tests used:
Format in all cases: cell-based, Escherichia coli
[1] = tested on: susceptible E. coli NCTC 10418; test: Novobiocin potentiation assay (MIC of novobiocin with fixed concentration of peptide or PAβN); parameters: key to MIC of Novobiocin, E. coli NCTC 10418, +128 μg/mL added peptide / MIC of Novobiocin, E. coli NCTC 10418, +32 μg/mL added peptide: Non potentiating (NP) indicated no reduction in the MIC of novobiocin was observed; details: for MIC of Novobiocin, E. coli NCTC 10418, +32 μg/mL added peptide / MIC of Novobiocin, E. coli NCTC 10418, +128 μg/mL added peptide: broth microdilution, Iso-Sensitest Broth, 5 × 10^5 CFU/mL, visual read-out, duplicate; for MIC of Novobiocin, E. coli NCTC 10418, +32 μg/mL added peptide: fixed 32 μg/mL peptide; for MIC of Novobiocin, E. coli NCTC 10418, +128 μg/mL added peptide: fixed 128 μg/mL peptide; for potentiation of the MIC of novobiocin, result in words: added peptide, wording covers susceptible and multi-drug resistant strain
Experimental: (§1) The peptides were also tested in combination with antibiotics novobiocin and norfloxacin. Novobiocin has low efficacy against Gram-negative bacteria due to its hydrophobicity, giving limited cell permeability.
(§2) The antibacterial activity of the peptides and peptide/antibiotic combinations were tested by the broth microdilution assay according to [24]. Escherichia coli NCTC 10,418 and Staphylococcus aureus NCTC 12,981 were obtained from the National Collection of Type Cultures, UK. Escherichia coli G69 was a clinical isolate as previously described.
(§3) Briefly, all bacterial strains were cultured on nutrient agar (Sigma-Aldrich, Gillingham, UK) plates and incubated for 24 h at 37 °C prior to MIC determination. In addition, known quantities of each test sample were dissolved in DMSO and then diluted in ISB (Iso- Sensitest Broth, Oxoid, Basingstoke, UK) to give a range concentration of 128–0 μg/mL, unless stated differently. […] Finally, the overnight cultures of each of the tested strains were suspended to an inoculum density of approximately 1.0 × 10^8 CFU/mL in phosphate buffered saline (PBS), consisting of 137 mM NaCl, 3 mM KCl, 8 mM Na2HPO4, and […] (Oxoid, Basingstoke, UK). The cell suspensions were standardized by adjusting the optical density to 0.1 at 600 nm (Thermo Scientific UV-Vis Spectrophotometer, Abingdon, UK) before being diluted 1:100 in ISB prior to inoculation
(§4) The assays were performed by microdilution using 96-well microtiter plates with a final inoculum of 5 × 10^5 CFU/mL and each sample was tested in duplicate in at least two independent experiments in order to confirm the reliability of the data. Results were determined by visual inspection of the wells and the presence of an evident opaque medium or white pellets were indicative of bacterial growth. The MIC values were recorded as the lowest concentration at which no bacterial growth was detected.

[2] = tested on: multi-drug resistant clinical isolate E. coli G69; test: as above; parameters: key to MIC of Novobiocin, E. coli G69, +32 μg/mL added peptide / MIC of Novobiocin, E. coli G69, +128 μg/mL added peptide: Non potentiating (NP) indicated no reduction in the MIC of novobiocin was observed; details: for MIC of Novobiocin, E. coli G69, +32 μg/mL added peptide / MIC of Novobiocin, E. coli G69, +128 μg/mL added peptide: broth microdilution, Iso-Sensitest Broth, 5 × 10^5 CFU/mL, visual read-out, duplicate; for MIC of Novobiocin, E. coli G69, +32 μg/mL added peptide: fixed 32 μg/mL peptide; for MIC of Novobiocin, E. coli G69, +128 μg/mL added peptide: fixed 128 μg/mL peptide; for potentiation of novobiocin against multi-drug resistant E. coli, result in words: E. coli G69, added peptide
Experimental: as §1, §2, §3, §4

[3] = tested on: multidrug resistant clinical isolate E. coli G69; test: Norfloxacin potentiation assay (MIC of norfloxacin with fixed concentration of peptide or PAβN); details: fixed 128 μg/mL peptide; broth microdilution; duplicate
Experimental: (§5) In order to gather more evidence on the potential mechanisms of action, the effects of the peptides in combination with the quinolone antibiotic norfloxacin were determined. Norfloxacin is active against Gram-negative bacteria, generally achieving entry via porin channels, but is also able to enter the bacterial cell via the membrane in porin-deficient mutants. Therefore, any membrane permeability mechanism would not be expected to have a significant effect on improving the activity of norfloxacin in porin-competent strains. This is indeed what was observed (Table S5), which added weight to our hypothesis that our very short peptides may be acting as membrane permeability enhancers for novobiocin.
as §2
as §3, with “inoculation […]” for “inoculation”
as §4, with “detected. […]” for “detected.”
(§6) potentiating novobiocin. Assays were performed at fixed concentration of 128 μg/mL against susceptible E. coli 10418 and multidrug resistant clinical isolate E. coli G69. Potentiation assay for norfloxacin was also performed in presence of 64 μg/mL of RND efflux pump inhibitor PAβN. All tests were repeated in […]
(§7) Compound Sequence MIC of norfloxacin (μg/mL) […]
(§8) inhibitor PaβN but no potentiation was observed, so the assay was not repeated at lower concentrations.

[4] = tested on: susceptible E. coli 10418; test: as above; details: fixed 128 μg/mL peptide; broth microdilution; duplicate
Experimental: as §5, §2
as §3, with “inoculation […]” for “inoculation”
as §4, with “detected. […]” for “detected.”
as §6, §7, §8

WRRQRW [Compound 20, short cationic peptide WRRQRW, C-terminal amide; commercial sample from ThermoFisher]
MIC of Novobiocin, E. coli NCTC 10418, +32 μg/mL added peptide [1]: 16 µg/mL
MIC of Novobiocin, E. coli NCTC 10418, +128 μg/mL added peptide [1]: 4 µg/mL
MIC of Novobiocin, E. coli G69, +32 μg/mL added peptide [2]: NP
MIC of Novobiocin, E. coli G69, +128 μg/mL added peptide [2]: 32 µg/mL
MIC of norfloxacin, E. coli G69, +128 μg/mL of peptide [3]: > 128 µg/mL
MIC of norfloxacin, E. coli 10418, +128 μg/mL of peptide [4]: 0.062 µg/mL

RPPWRPPW [Compound 26]
MIC of Novobiocin, E. coli NCTC 10418, +32 μg/mL added peptide [1]: 64 µg/mL
MIC of Novobiocin, E. coli NCTC 10418, +128 μg/mL added peptide [1]: 8 µg/mL
potentiation of novobiocin against multi-drug resistant E. coli, result in words [2]: no potentiation was seen against the multidrug resistant strain
MIC of Novobiocin, E. coli G69, +128 μg/mL added peptide [2]: NP
MIC of norfloxacin, E. coli G69, +128 μg/mL of peptide [3]: > 128 µg/mL

RWRW [Compound 5, short cationic peptide RWRW, amidated at the C-terminus]
MIC of Novobiocin, E. coli NCTC 10418, +32 μg/mL added peptide [1]: 64 µg/mL
MIC of Novobiocin, E. coli NCTC 10418, +128 μg/mL added peptide [1]: 2 µg/mL
MIC of Novobiocin, E. coli G69, +32 μg/mL added peptide [2]: 64 µg/mL
MIC of Novobiocin, E. coli G69, +128 μg/mL added peptide [2]: 16 µg/mL
MIC of norfloxacin, E. coli G69, +128 μg/mL of peptide [3]: > 128 µg/mL
MIC of norfloxacin, E. coli 10418, +128 μg/mL of peptide [4]: 0.062 µg/mL

FKPLPPH [Compound 25, proline-rich peptide FKPLPPH, C-terminal amide; commercial sample from ThermoFisher]
potentiation of the MIC of novobiocin, result in words [1]: Potentiation was restored but again only against susceptible strain
MIC of Novobiocin, E. coli NCTC 10418, +128 μg/mL added peptide [1]: 8 µg/mL
MIC of Novobiocin, E. coli G69, +128 μg/mL added peptide [2]: NP
MIC of norfloxacin, E. coli G69, +128 μg/mL of peptide [3]: > 128 µg/mL
MIC of norfloxacin, E. coli 10418, +128 μg/mL of peptide [4]: 0.062 µg/mL

FRFRF [Compound 10, short cationic peptide FRFRF, amidated at the C-terminus]
MIC of Novobiocin, E. coli NCTC 10418, +128 μg/mL added peptide [1]: 2 µg/mL
potentiation of novobiocin against multi-drug resistant E. coli, result in words [2]: restore the susceptibility
MIC of Novobiocin, E. coli G69, +32 μg/mL added peptide [2]: 8 µg/mL
MIC of Novobiocin, E. coli G69, +128 μg/mL added peptide [2]: 4 µg/mL

RPWPPR [Compound 23, proline-rich cationic peptide RPWPPR, amidated at the C-terminus]
potentiation of the MIC of novobiocin, result in words [1]: shows potentiation, but only against the susceptible strain
MIC of Novobiocin, E. coli NCTC 10418, +128 μg/mL added peptide [1]: 4 µg/mL
MIC of Novobiocin, E. coli G69, +128 μg/mL added peptide [2]: NP
MIC of norfloxacin, E. coli G69, +128 μg/mL of peptide [3]: > 128 µg/mL
MIC of norfloxacin, E. coli 10418, +128 μg/mL of peptide [4]: 0.062 µg/mL

WKPLPPR [Compound 24, proline-rich cationic peptide WKPLPPR, amidated at the C-terminus]
potentiation of the MIC of novobiocin, result in words [1]: no synergism was observed
MIC of Novobiocin, E. coli NCTC 10418, +128 μg/mL added peptide [1]: NP
MIC of Novobiocin, E. coli G69, +128 μg/mL added peptide [2]: NP
MIC of norfloxacin, E. coli G69, +128 μg/mL of peptide [3]: > 128 µg/mL
MIC of norfloxacin, E. coli 10418, +128 μg/mL of peptide [4]: 0.062 µg/mL

RRFRF [Compound 11, short cationic peptide RRFRF, amidated at the C-terminus]
MIC of Novobiocin, E. coli NCTC 10418, +128 μg/mL added peptide [1]: 64 µg/mL
MIC of Novobiocin, E. coli G69, +128 μg/mL added peptide [2]: 64 µg/mL

FRFR [Compound 8, short cationic peptide FRFR, amidated at the C-terminus]
MIC of Novobiocin, E. coli NCTC 10418, +128 μg/mL added peptide [1]: NP
MIC of Novobiocin, E. coli G69, +32 μg/mL added peptide [2]: NP
MIC of Novobiocin, E. coli G69, +128 μg/mL added peptide [2]: 8 µg/mL
